{
  "source": "ChEMBL document CHEMBL4507288",
  "about": "(2021)",
  "key": {"[1]": {"target": "Sodium-dependent dopamine transporter (Homo sapiens, UniProt Q01959)", "sequence (Q01959 whole entry)": "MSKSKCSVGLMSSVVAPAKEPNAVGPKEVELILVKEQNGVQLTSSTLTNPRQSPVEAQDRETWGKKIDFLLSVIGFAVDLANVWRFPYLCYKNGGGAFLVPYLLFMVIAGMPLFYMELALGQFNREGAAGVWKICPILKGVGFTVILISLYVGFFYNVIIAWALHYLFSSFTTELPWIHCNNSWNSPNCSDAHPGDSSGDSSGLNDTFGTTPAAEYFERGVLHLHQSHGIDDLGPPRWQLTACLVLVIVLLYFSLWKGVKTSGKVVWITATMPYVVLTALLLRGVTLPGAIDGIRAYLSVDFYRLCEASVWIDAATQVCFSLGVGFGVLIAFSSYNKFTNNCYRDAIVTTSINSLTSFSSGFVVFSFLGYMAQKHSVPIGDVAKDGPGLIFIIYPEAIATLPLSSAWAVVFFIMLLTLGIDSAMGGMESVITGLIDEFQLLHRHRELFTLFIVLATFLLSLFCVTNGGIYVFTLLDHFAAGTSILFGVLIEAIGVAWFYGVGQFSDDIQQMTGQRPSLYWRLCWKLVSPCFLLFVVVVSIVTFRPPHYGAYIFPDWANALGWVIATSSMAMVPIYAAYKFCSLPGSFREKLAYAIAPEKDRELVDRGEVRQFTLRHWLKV", "experiment": "GPCRScan assay: inhibition of DAT", "set-up": "radioligand conc. used [nm] 3.6 – 16.0, parental cells stable HEK"}, "[2]": {"target": "Sigma non-opioid intracellular receptor 1 (Homo sapiens, UniProt Q99720)", "experiment": "GPCRScan assay: inhibition of Sigma 1", "set-up": "radioligand conc. used [nm] 4.0 – 5.0, parental cells HEKT"}, "[3]": {"target": "Serine/threonine-protein kinase Nek10 (Homo sapiens) (UniProt Q6ZWH5)", "conditions": "Compound concentration 1000.0 nM"}, "[4]": {"target": "Ribosomal protein S6 kinase alpha-6 (Homo sapiens) (UniProt Q9UK32)", "conditions": "Compound concentration 1000.0 nM"}, "[5]": {"target": "Phosphatidylinositol 4,5-bisphosphate 3-kinase catalytic subunit gamma isoform (Homo sapiens) (UniProt P48736)", "conditions": "Compound concentration 1000.0 nM"}, "[6]": {"target": "Inhibitor of nuclear factor kappa-B kinase subunit epsilon (Homo sapiens) (UniProt Q14164)", "conditions": "Compound concentration 1000.0 nM"}, "[7]": {"target": "Serine/threonine-protein kinase MRCK gamma (Homo sapiens) (UniProt Q6DT37)", "conditions": "Compound concentration 1000.0 nM"}, "[8]": {"target": "Phosphatidylinositol 4,5-bisphosphate 3-kinase catalytic subunit beta isoform (Homo sapiens) (UniProt P42338)", "conditions": "Compound concentration 1000.0 nM"}, "[9]": {"target": "Dual specificity testis-specific protein kinase 1 (Homo sapiens) (UniProt Q15569)", "conditions": "Compound concentration 1000.0 nM"}, "[10]": {"target": "Serine/threonine-protein kinase 16 (Homo sapiens) (UniProt O75716)", "sequence (O75716 whole entry)": "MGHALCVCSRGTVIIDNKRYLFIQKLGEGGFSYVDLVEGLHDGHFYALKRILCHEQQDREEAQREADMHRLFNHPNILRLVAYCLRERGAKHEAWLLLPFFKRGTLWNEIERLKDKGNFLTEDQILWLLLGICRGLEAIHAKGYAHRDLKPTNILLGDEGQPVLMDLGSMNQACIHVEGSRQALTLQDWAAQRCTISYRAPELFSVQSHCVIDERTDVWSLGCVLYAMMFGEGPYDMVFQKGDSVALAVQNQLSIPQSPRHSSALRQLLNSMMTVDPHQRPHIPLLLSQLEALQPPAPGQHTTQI", "conditions": "Compound concentration 1000.0 nM"}, "[11]": {"target": "Calcium/calmodulin-dependent protein kinase type 1D (Homo sapiens) (UniProt Q8IU85)", "conditions": "Compound concentration 1000.0 nM"}, "[12]": {"target": "Eukaryotic translation initiation factor 2-alpha kinase 1 (Homo sapiens) (UniProt Q9BQI3)", "conditions": "Compound concentration 1000.0 nM"}, "[13]": {"system": "Epidermal growth factor receptor (Homo sapiens), P00533 [G719C]", "conditions": "Compound concentration 1000.0 nM"}, "[14]": {"target": "Ephrin type-B receptor 3 (Homo sapiens) (UniProt P54753)", "sequence (P54753 whole entry)": "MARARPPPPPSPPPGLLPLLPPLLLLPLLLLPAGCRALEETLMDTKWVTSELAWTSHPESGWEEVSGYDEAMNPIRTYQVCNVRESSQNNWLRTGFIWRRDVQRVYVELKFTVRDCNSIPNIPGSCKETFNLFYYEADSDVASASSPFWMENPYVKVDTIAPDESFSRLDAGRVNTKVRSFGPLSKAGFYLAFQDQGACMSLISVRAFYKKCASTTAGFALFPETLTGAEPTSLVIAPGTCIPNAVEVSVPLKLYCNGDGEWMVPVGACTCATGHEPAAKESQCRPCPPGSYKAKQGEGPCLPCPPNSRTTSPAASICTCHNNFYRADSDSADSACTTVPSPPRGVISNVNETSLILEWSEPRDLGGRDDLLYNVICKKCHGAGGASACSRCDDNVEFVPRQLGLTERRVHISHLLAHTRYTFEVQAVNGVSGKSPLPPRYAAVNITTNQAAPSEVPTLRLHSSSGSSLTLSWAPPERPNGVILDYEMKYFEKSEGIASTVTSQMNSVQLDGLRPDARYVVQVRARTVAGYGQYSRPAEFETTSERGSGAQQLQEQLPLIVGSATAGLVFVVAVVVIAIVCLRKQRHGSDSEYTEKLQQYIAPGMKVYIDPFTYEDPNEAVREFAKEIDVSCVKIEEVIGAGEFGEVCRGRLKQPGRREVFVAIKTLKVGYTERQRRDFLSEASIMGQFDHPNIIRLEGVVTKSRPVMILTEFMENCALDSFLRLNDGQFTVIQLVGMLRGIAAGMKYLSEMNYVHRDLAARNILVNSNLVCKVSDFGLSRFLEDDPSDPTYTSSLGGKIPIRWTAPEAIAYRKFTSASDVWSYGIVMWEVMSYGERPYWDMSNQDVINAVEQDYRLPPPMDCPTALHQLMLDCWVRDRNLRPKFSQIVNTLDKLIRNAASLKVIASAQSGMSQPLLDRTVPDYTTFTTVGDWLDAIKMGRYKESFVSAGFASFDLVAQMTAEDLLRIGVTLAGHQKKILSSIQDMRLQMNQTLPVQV", "conditions": "Compound concentration 1000.0 nM"}, "[15]": {"system": "Phosphatidylinositol 4,5-bisphosphate 3-kinase catalytic subunit alpha isoform (Homo sapiens), P42336 [I800L]", "conditions": "Compound concentration 1000.0 nM"}, "[16]": {"target": "Serine/threonine-protein kinase 33 (Homo sapiens) (UniProt Q9BYT3)", "conditions": "Compound concentration 1000.0 nM"}, "[17]": {"target": "Mitogen-activated protein kinase kinase kinase 15 (Homo sapiens) (UniProt Q6ZN16)", "conditions": "Compound concentration 1000.0 nM"}, "[18]": {"target": "STE20-like serine/threonine-protein kinase (Homo sapiens) (UniProt Q9H2G2)", "conditions": "Compound concentration 1000.0 nM"}, "[19]": {"target": "Cyclin-dependent kinase 2 (Homo sapiens) (UniProt P24941)", "conditions": "Compound concentration 1000.0 nM"}, "[20]": {"system": "Epidermal growth factor receptor (Homo sapiens), P00533 [L861Q]", "conditions": "Compound concentration 1000.0 nM"}, "[21]": {"system": "Proto-oncogene tyrosine-protein kinase receptor Ret (Homo sapiens), P07949 [M918T]", "conditions": "Compound concentration 1000.0 nM"}, "[22]": {"target": "Serine/threonine-protein kinase PknB (Mycobacterium tuberculosis) (UniProt P9WI81)", "conditions": "Compound concentration 1000.0 nM"}, "[23]": {"target": "Homeodomain-interacting protein kinase 2 (Homo sapiens) (UniProt Q9H2X6)", "sequence (Q9H2X6 whole entry, looked up)": "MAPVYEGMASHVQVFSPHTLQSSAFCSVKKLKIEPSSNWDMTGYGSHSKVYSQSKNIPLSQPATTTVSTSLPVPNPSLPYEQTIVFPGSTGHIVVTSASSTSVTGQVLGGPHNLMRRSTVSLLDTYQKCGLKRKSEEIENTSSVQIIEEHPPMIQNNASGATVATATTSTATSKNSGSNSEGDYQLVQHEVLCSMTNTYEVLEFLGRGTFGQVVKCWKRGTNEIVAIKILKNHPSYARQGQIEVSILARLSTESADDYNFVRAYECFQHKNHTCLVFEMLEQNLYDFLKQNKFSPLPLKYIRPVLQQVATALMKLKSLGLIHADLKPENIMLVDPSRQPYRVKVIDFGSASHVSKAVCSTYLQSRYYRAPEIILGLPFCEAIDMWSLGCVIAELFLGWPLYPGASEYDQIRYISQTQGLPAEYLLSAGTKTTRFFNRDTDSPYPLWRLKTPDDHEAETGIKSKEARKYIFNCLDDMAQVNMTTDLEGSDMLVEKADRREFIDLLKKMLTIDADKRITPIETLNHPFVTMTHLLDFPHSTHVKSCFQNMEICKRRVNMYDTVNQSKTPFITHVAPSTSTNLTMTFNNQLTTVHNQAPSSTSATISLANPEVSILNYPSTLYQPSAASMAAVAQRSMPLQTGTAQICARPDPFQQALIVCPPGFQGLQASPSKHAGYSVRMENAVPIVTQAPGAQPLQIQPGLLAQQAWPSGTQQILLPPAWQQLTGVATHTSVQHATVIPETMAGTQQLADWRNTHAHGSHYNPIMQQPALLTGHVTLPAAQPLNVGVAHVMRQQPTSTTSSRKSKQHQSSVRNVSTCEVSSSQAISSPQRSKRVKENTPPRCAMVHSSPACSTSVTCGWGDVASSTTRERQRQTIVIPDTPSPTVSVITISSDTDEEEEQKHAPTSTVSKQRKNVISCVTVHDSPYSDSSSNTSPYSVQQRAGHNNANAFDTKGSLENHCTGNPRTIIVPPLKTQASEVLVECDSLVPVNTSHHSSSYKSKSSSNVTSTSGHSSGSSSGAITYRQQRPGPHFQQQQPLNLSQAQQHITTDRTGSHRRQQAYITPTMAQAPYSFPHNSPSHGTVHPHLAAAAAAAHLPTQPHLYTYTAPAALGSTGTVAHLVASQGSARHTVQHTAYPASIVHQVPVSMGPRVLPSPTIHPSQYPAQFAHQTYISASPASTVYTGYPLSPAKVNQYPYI", "conditions": "Compound concentration 1000.0 nM"}, "[24]": {"target": "Phosphatidylinositol 4-phosphate 3-kinase C2 domain-containing subunit beta (Homo sapiens) (UniProt O00750)", "conditions": "Compound concentration 1000.0 nM"}, "[25]": {"target": "Casein kinase I isoform gamma-2 (Homo sapiens) (UniProt P78368)", "conditions": "Compound concentration 1000.0 nM"}, "[26]": {"target": "Serine/threonine-protein kinase WNK3 (Homo sapiens) (UniProt Q9BYP7)", "conditions": "Compound concentration 1000.0 nM"}, "[27]": {"target": "Serine/threonine-protein kinase 17B (Homo sapiens) (UniProt O94768)", "conditions": "Compound concentration 1000.0 nM"}, "[28]": {"target": "Vascular endothelial growth factor receptor 2 (Homo sapiens) (UniProt P35968)", "conditions": "Compound concentration 1000.0 nM"}, "[29]": {"target": "Serine/threonine-protein kinase NIM1 (Homo sapiens) (UniProt Q8IY84)", "sequence (Q8IY84 whole entry)": "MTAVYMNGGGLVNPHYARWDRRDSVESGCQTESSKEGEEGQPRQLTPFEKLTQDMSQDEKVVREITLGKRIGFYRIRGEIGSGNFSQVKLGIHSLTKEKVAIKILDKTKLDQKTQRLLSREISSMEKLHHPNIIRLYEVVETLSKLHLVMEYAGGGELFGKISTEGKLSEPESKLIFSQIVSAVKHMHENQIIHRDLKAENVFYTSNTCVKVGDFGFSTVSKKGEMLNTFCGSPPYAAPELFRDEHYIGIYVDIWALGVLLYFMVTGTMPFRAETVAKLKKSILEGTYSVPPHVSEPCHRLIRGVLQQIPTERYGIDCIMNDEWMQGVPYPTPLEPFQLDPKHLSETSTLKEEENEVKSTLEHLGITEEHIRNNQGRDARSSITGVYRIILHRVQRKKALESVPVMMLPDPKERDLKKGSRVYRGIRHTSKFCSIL", "conditions": "Compound concentration 1000.0 nM"}, "[30]": {"target": "Serine/threonine-protein kinase BRSK1 (Homo sapiens) (UniProt Q8TDC3)", "sequence (Q8TDC3 whole entry)": "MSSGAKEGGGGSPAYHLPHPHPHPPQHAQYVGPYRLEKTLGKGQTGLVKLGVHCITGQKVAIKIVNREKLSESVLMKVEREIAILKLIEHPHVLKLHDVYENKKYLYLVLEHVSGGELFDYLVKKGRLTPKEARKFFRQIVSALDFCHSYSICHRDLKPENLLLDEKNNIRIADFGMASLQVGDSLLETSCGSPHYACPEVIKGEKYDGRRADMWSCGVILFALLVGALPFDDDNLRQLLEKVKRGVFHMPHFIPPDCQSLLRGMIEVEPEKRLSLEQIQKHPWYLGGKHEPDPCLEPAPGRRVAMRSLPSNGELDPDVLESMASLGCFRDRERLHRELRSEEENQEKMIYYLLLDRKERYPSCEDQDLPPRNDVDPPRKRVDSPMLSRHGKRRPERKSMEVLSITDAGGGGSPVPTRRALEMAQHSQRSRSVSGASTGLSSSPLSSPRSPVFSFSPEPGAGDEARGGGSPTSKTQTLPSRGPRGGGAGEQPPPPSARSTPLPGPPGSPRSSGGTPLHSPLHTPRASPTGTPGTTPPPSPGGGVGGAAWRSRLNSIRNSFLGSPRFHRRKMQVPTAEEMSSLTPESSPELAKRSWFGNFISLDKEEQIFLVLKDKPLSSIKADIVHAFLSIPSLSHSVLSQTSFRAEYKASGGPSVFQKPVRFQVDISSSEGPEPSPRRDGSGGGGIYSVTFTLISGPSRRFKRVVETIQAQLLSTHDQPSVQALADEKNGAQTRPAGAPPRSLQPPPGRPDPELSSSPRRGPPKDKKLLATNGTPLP", "conditions": "Compound concentration 1000.0 nM"}, "[31]": {"target": "Mitogen-activated protein kinase 14 (Homo sapiens) (UniProt Q16539)", "conditions": "Compound concentration 1000.0 nM"}, "[32]": {"target": "Serine/threonine-protein kinase 4 (Homo sapiens) (UniProt Q13043)", "conditions": "Compound concentration 1000.0 nM"}, "[33]": {"target": "Serine/threonine-protein kinase Nek7 (Homo sapiens) (UniProt Q8TDX7)", "sequence (Q8TDX7 whole entry, looked up)": "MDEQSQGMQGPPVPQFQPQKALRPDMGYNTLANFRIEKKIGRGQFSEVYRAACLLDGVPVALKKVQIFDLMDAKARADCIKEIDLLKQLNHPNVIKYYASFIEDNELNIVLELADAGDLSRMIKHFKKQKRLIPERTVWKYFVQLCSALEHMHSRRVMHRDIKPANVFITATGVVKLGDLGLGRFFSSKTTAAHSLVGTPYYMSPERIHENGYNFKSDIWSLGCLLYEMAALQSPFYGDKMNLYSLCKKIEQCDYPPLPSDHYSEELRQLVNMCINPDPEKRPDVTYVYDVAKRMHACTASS", "conditions": "Compound concentration 1000.0 nM"}, "[34]": {"target": "Serine/threonine-protein kinase Sgk2 (Homo sapiens) (UniProt Q9HBY8)", "sequence (Q9HBY8 whole entry)": "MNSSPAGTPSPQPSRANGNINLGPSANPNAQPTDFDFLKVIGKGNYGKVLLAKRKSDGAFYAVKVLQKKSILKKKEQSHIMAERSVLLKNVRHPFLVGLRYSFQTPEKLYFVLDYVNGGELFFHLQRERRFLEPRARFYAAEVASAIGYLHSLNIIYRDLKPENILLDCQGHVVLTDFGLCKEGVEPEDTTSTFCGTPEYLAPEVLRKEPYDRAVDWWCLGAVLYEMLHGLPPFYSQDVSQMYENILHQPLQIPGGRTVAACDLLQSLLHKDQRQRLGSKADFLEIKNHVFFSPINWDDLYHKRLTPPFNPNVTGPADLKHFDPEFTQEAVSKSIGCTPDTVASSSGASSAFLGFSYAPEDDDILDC", "conditions": "Compound concentration 1000.0 nM"}, "[35]": {"target": "Mitogen-activated protein kinase kinase kinase kinase 1 (Homo sapiens) (UniProt Q92918)", "conditions": "Compound concentration 1000.0 nM"}, "[36]": {"target": "Calcium/calmodulin-dependent protein kinase type 1G (Homo sapiens) (UniProt Q96NX5)", "conditions": "Compound concentration 1000.0 nM"}, "[37]": {"target": "Serine/threonine-protein kinase RIO2 (Homo sapiens) (UniProt Q9BVS4)", "conditions": "Compound concentration 1000.0 nM"}, "[38]": {"target": "Serine/threonine-protein kinase 32A (Homo sapiens) (UniProt Q8WU08)", "conditions": "Compound concentration 1000.0 nM"}, "[39]": {"target": "SRSF protein kinase 2 (Homo sapiens) (UniProt P78362)", "conditions": "Compound concentration 1000.0 nM"}, "[40]": {"target": "Casein kinase I isoform delta (Homo sapiens) (UniProt P48730)", "conditions": "Compound concentration 1000.0 nM"}, "[41]": {"target": "Serine/threonine-protein kinase PAK 6 (Homo sapiens) (UniProt Q9NQU5)", "conditions": "Compound concentration 1000.0 nM"}, "[42]": {"target": "Rhodopsin kinase GRK1 (Homo sapiens) (UniProt Q15835)", "conditions": "Compound concentration 1000.0 nM"}, "[43]": {"system": "Phosphatidylinositol 4,5-bisphosphate 3-kinase catalytic subunit alpha isoform (Homo sapiens), P42336 [E545K]", "conditions": "Compound concentration 1000.0 nM"}, "[44]": {"target": "Membrane-associated tyrosine- and threonine-specific cdc2-inhibitory kinase (Homo sapiens) (UniProt Q99640)", "conditions": "Compound concentration 1000.0 nM"}},
  "data": [
    {"compound": "CC(C)(C)OC(=O)N1CCCC1CNC1CCC(c2cc(F)ccc2F)(S(=O)(=O)c2ccc(Cl)cc2)CC1", "note": "(stereo not given) [GSI-NC]", "values": [
      {"measurement": "Ki", "setting": "[1]", "value": 10, "unit": "µM"},
      {"measurement": "pKi", "setting": "[1]", "value": 5},
      {"measurement": "Ki", "setting": "[2]", "value": 0.223, "unit": "µM"}
    ]},
    {"compound": "O=S(=O)(NC1CCC(c2cc(F)ccc2F)(S(=O)(=O)c2ccc(Cl)cc2)CC1)C(F)(F)F", "note": "(stereo not given) [MRK-560]", "values": [
      {"measurement": "residual activity", "setting": "[3]", "value": 100, "unit": "%"},
      {"measurement": "residual activity", "setting": "[4]", "value": 90, "unit": "%"},
      {"measurement": "residual activity", "setting": "[5]", "value": 100, "unit": "%"},
      {"measurement": "residual activity", "setting": "[6]", "value": 0, "unit": "%"},
      {"measurement": "residual activity", "setting": "[7]", "value": 100, "unit": "%"},
      {"measurement": "residual activity", "setting": "[8]", "value": 100, "unit": "%"},
      {"measurement": "residual activity", "setting": "[9]", "value": 100, "unit": "%"},
      {"measurement": "residual activity", "setting": "[10]", "value": 97, "unit": "%"},
      {"measurement": "residual activity", "setting": "[11]", "value": 79, "unit": "%"},
      {"measurement": "residual activity", "setting": "[12]", "value": 100, "unit": "%"},
      {"measurement": "residual activity", "setting": "[13]", "value": 100, "unit": "%"},
      {"measurement": "residual activity", "setting": "[14]", "value": 100, "unit": "%"},
      {"measurement": "residual activity", "setting": "[15]", "value": 98, "unit": "%"},
      {"measurement": "residual activity", "setting": "[16]", "value": 76, "unit": "%"},
      {"measurement": "residual activity", "setting": "[17]", "value": 78, "unit": "%"},
      {"measurement": "residual activity", "setting": "[18]", "value": 100, "unit": "%"},
      {"measurement": "residual activity", "setting": "[19]", "value": 100, "unit": "%"},
      {"measurement": "residual activity", "setting": "[20]", "value": 100, "unit": "%"},
      {"measurement": "residual activity", "setting": "[21]", "value": 92, "unit": "%"},
      {"measurement": "residual activity", "setting": "[22]", "value": 91, "unit": "%"},
      {"measurement": "residual activity", "setting": "[23]", "value": 81, "unit": "%"},
      {"measurement": "residual activity", "setting": "[24]", "value": 100, "unit": "%"},
      {"measurement": "residual activity", "setting": "[25]", "value": 99, "unit": "%"},
      {"measurement": "residual activity", "setting": "[26]", "value": 100, "unit": "%"},
      {"measurement": "residual activity", "setting": "[27]", "value": 97, "unit": "%"},
      {"measurement": "residual activity", "setting": "[28]", "value": 100, "unit": "%"},
      {"measurement": "residual activity", "setting": "[29]", "value": 80, "unit": "%"},
      {"measurement": "residual activity", "setting": "[30]", "value": 92, "unit": "%"},
      {"measurement": "residual activity", "setting": "[31]", "value": 100, "unit": "%"},
      {"measurement": "residual activity", "setting": "[32]", "value": 100, "unit": "%"},
      {"measurement": "residual activity", "setting": "[33]", "value": 100, "unit": "%"},
      {"measurement": "residual activity", "setting": "[34]", "value": 93, "unit": "%"},
      {"measurement": "residual activity", "setting": "[35]", "value": 96, "unit": "%"},
      {"measurement": "residual activity", "setting": "[36]", "value": 100, "unit": "%"},
      {"measurement": "residual activity", "setting": "[37]", "value": 82, "unit": "%"},
      {"measurement": "residual activity", "setting": "[38]", "value": 97, "unit": "%"},
      {"measurement": "residual activity", "setting": "[39]", "value": 65, "unit": "%"},
      {"measurement": "residual activity", "setting": "[40]", "value": 87, "unit": "%"},
      {"measurement": "residual activity", "setting": "[41]", "value": 100, "unit": "%"},
      {"measurement": "residual activity", "setting": "[42]", "value": 84, "unit": "%"},
      {"measurement": "residual activity", "setting": "[43]", "value": 77, "unit": "%"},
      {"measurement": "residual activity", "setting": "[44]", "value": 100, "unit": "%"}
    ]}
  ]
}
